Test results as given in patent US20170044492A1, “CONVERSION OF SOMATIC CELLS INTO NOCICEPTORS, AND METHODS OF USE THEREOF” (CHILDERN'S MEDICAL CENTER CORPORATION, priority 2013, published 2017).
“And” between values parts separate entries of the source, which are not always exact repeats. Equal values may be shown once. Read-outs that look alike come from different tables or passages of the source.

Key:
primary DRGs = type: cell-based, mouse
BAM-derived neurons = type: cell-based, mouse
induced nociceptors [1] = type: cell-based, mouse
TrpV1 receptor = target: T1, TrpV1 receptor (Mus musculus, UniProt Q704Y3); test: PGE2 sensitization of the capsaicin response, calcium imaging of induced nociceptors; type: cell-based
T1 construct: endogenous in cells; host or cells: tdTomato-positive induced nociceptors reprogrammed from TrpV1-Cre+/-::tdTomato+/- mouse embryonic fibroblasts
T1 sequence (Q704Y3 whole entry): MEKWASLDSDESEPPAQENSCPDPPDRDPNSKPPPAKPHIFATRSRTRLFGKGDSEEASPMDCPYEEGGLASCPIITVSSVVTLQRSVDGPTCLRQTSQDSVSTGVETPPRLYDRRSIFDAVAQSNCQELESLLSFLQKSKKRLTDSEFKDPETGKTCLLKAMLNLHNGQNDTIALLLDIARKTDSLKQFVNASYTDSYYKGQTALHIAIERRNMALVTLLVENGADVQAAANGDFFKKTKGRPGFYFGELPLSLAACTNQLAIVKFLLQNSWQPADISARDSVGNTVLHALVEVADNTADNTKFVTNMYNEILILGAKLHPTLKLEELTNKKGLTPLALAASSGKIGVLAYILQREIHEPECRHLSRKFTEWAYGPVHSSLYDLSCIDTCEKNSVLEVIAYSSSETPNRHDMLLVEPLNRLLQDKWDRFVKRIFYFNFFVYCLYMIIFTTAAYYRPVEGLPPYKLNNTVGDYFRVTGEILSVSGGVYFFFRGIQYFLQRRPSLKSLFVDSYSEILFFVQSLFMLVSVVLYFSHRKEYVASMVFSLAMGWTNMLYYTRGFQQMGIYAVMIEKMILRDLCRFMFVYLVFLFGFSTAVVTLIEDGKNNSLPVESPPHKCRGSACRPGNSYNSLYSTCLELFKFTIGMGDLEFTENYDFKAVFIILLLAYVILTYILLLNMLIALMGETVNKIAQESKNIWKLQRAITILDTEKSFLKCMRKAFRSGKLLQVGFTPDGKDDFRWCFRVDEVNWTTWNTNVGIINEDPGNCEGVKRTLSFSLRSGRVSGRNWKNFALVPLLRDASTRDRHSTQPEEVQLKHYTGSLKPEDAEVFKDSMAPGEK

[2] = system: tdTomato-positive induced neurons; test: Whole-cell patch clamp of induced nociceptors; type: cell-based, mouse
induced human neurons = test: Whole-cell patch clamp of induced human neurons; type: cell-based
induced neurons = test: Extracellular multi-electrode array recording of induced neurons after agonist application; type: cell-based, mouse
[3] = system: tdTomato-positive primary DRG neurons; test: Calcium imaging of tdTomato-positive primary DRG neurons with Trp channel agonists; type: cell-based, mouse
[4] = system: KCl-responding neurons derived from the BAM factors; test: Calcium imaging of neurons derived from the BAM factors alone; type: cell-based, mouse
[5] = system: tdTomato-positive induced nociceptors; test: Calcium imaging of tdTomato-positive induced nociceptors with Trp channel agonists; type: cell-based, mouse
induced nociceptors [6] = type: cell-based, mouse; remark: listed apart in the source
[7] = target: T2, P2X3 subtype of ionotropic purinergic receptors (Mus musculus, UniProt Q3UR32); test: Whole-cell patch clamp of P2X3 currents in induced nociceptors; type: cell-based; details: 30 μM
T2 construct: Whole-cell patch recordings were performed on induced tdTomato-positive nociceptors, derived from TrpV1-Cre^+/−::tdTomato^+/− MEFs; endogenous in cells; host or cells: tdTomato-positive induced nociceptors reprogrammed from TrpV1-Cre+/-::tdTomato+/- mouse embryonic fibroblasts
T2 sequence (Q3UR32 1-397): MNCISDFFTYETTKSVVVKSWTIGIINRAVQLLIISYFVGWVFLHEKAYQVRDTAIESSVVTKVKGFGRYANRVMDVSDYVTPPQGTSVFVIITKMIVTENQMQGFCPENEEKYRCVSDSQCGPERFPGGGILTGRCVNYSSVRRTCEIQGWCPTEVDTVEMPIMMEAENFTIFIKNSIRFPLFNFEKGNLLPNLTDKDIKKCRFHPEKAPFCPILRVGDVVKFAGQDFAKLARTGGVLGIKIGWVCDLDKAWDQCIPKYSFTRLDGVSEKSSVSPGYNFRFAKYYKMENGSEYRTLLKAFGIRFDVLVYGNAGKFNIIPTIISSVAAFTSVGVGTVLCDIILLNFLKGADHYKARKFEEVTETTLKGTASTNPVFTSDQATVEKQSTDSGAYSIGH

[8] = adult TrpV1::tdTomato mice, same procedure, n=249 tdTomato-positive cells that responded to KCl
[9] = induced nociceptors, capsaicin 1 μM, mustard oil 100 μM, menthol 250 μM, n=227 tdTomato-positive cells that responded to KCl

## [Cl-].[K+] [KCl, potassium chloride]
Primary DRGs
  CGRP release from primary DRGs: dose-dependent increase in CGRP release
BAM-derived neurons
  CGRP released, mean (s.e.m.): 10.3 (2.6) pg ml-1
Induced nociceptors [1]
  CGRP released, mean (s.e.m.): 390.4 (52.5) pg ml-1

## CCCCC[C@H](O)/C=C/[C@H]1[C@H](O)CC(=O)[C@@H]1C/C=C\CCCC(=O)O [PGE2, Prostaglandin E2]
TrpV1 receptor; second 300 nM capsaicin application after 1 μM PGE2 for two minutes, n=41
  mean change in fluorescence absorption ratio, PGE2-sensitized capsaicin response: 0.18±6.0*10^−3

## NC1=N[C@H](O)[C@H]2[C@H]3O[C@]4(O)O[C@@H]([C@@H](O)[C@@]2(N1)[C@@H]4O)[C@]3(O)CO [TTX, tetrodotoxin]
[2]
  induced neurons firing single TTX-resistant action potentials overshooting 0 mV (neurons/total): 8/16 and 7/12
  induced neurons with TTX-resistant sodium currents greater than 50 pA (neurons/total): 14/15
Induced human neurons
  neurons with TTX-resistant sodium currents (neurons/total): 10/10

## COc1cc(CNC(=O)CCCC/C=C/C(C)C)ccc1O [capsaicin]
TrpV1 receptor; 300 nM capsaicin, before PGE2
  mean change in fluorescence absorption ratio, initial capsaicin response: 0.028±3.0*10^−3
Induced neurons; capsaicin 1 μM, mustard oil 100 μM
  arrays with robust action potential firing after agonist application (arrays/total): 3/3
[3]; [8]
  tdTomato-positive primary DRG neurons that responded to agonist: 36%
[4]
  KCl-responding neurons that responded to capsaicin (responders/total): 0/50
[5]; [9]
  tdTomato-positive cells that responded to agonist: 39%
[2]; 1 μM capsaicin, voltage clamp, holding −80 mV
  neurons with inward currents elicited by capsaicin (neurons/total): 6/11

## CC1CCC(C(C)C)C(O)C1 (stereo not drawn) [menthol]
[3]; [8]
  tdTomato-positive primary DRG neurons that responded to agonist: 2.5%
[5]; [9]
  tdTomato-positive cells that responded to agonist: 3%

## C=CCN=C=S [mustard oil]
Induced neurons
  arrays with robust action potential firing after agonist application (arrays/total): 3/3
[3]
  tdTomato-positive primary DRG neurons that responded to agonist: 2.5%
[5]
  tdTomato-positive cells that responded to agonist: 9%

## O=C1[O][Pt]2([NH][C@@H]3CCCC[C@H]3[NH]2)[O]C1=O [oxaliplatin]
Induced nociceptors [6]
  sensitization of capsaicin response (spikes): marked sensitization

## Nc1ncnc2c1ncn2[C@@H]1O[C@H](COP(=O)(O)CP(=O)(O)OP(=O)(O)O)[C@@H](O)[C@H]1O [α, β-methylene-ATP]
[7]
  neurons with rapidly-adapting inward currents elicited by agonist (neurons/total): 8/16

## ZD7288
[2]
  neurons with ZD7288-sensitive HCN currents (neurons/total): 2/2
